Test results published in ChEMBL document CHEMBL1158035, “Actinomycins with altered threonine units in the beta-peptidolactone” (2006).
Values joined by “and” are separate entries in the source; they are usually repeats but may differ in a detail not shown here. Identical values can stand only once. Numbered stars: 1 amine (or outer) side, 2 acyl side, 3 side chain; on linkers, the order of the positions; unused ones are H or OH. Bridge positions count the residues as written; N and C are the ends. Square brackets hold non-standard residues; d marks the D form. Peptide text beside a SMILES is read from it. I, II: the chains in the order shown. Actinocin(1to9) = Cc1c2oc3c(C)ccc(C(=O)[*:2])c3nc-2c(C(=O)[*:1])c(N)c1=O; NMeV = CN[C@H](C(=O)O)C(C)C; Sar = CNCC(=O)O

How the values were obtained:
Escherichia coli = experiment: Antimicrobial activity against Escherichia coli at 50 ug after 24 hrs by disk diffusion method; format: functional; details: read-out: IZ
[1] = Cytotoxicity against human HM02 cells; format: functional
Staphylococcus aureus = experiment: Antimicrobial activity against Staphylococcus aureus at 50 ug after 24 hrs by disk diffusion method; format: functional; details: read-out: IZ
[2] = (§1) Cytotoxicity against human Hep G2 cells; format: functional; details: HepG2
Bacillus subtilis = experiment: Antimicrobial activity against Bacillus subtilis at 50 ug after 24 hrs by disk diffusion method; format: functional; details: read-out: IZ
[3] = as §1; format: functional, HepG2

SMILES: Cc1c2oc3c(C)ccc(C(=O)N[C@@H]4C(=O)N[C@H](C(C)C)C(=O)N5[C@H](C(=O)N(C)CC(=O)N(C)[C@@H](C(C)C)C(=O)O[C@@H]4C)[C@@H](O)C[C@@H]5C)c3nc-2c(C(=O)N[C@@H]2C(=O)N[C@H](C(C)C)C(=O)N3CCC[C@H]3C(=O)N(C)CC(=O)N(C)[C@@H](C)C(=O)O[C@@H]2CCl)c(N)c1=O [ACTINOMYCIN G2]
- zone of inhibition at 50 µg/disc (Escherichia coli): 15 mm
- GI50 ([1]; Homo sapiens, HM02): 0.0013 µM
- TGI ([1]; Homo sapiens, HM02): 0.0043 µM
- zone of inhibition at 50 µg/disc (Staphylococcus aureus): 27 mm
- GI50 [2]: 0.0039 µM
- TGI [2]: 0.012 µM
- zone of inhibition at 50 µg/disc (Bacillus subtilis): 45 mm
- GI50 ([3]; Homo sapiens, HepG2): 0.0029 µM
- TGI ([3]; Homo sapiens, HepG2): 0.018 µM

SMILES: Cc1c2oc3c(C)ccc(C(=O)N[C@@H]4C(=O)N[C@H](C(C)C)C(=O)N5CCC[C@H]5C(=O)N(C)CC(=O)N(C)[C@@H](C(C)C)C(=O)O[C@@H]4C)c3nc-2c(C(=O)N[C@@H]2C(=O)N[C@H](C(C)C)C(=O)N3CCC[C@H]3C(=O)N(C)CC(=O)N(C)[C@@H](C(C)C)C(=O)O[C@@H]2C)c(N)c1=O [DACTINOMYCIN] (I: T[dV]P[Sar][NMeV] / II: T[dV]P[Sar][NMeV]; ester I:1-I:C, II:1-II:C; linker I:N-II:N via Actinocin(1to9))
- zone of inhibition at 50 µg/disc (Escherichia coli): 20 mm
- GI50 ([1]; Homo sapiens, HM02): 0.0016 µM
- TGI ([1]; Homo sapiens, HM02): 0.0064 µM
- zone of inhibition at 50 µg/disc (Staphylococcus aureus): 30 mm
- GI50 [2]: 0.0019 µM
- TGI [2]: 0.0088 µM
- zone of inhibition at 50 µg/disc (Bacillus subtilis): 55 mm
- GI50 ([3]; Homo sapiens, HepG2): 0.0012 µM
- TGI ([3]; Homo sapiens, HepG2): 0.052 µM

SMILES: Cc1c2oc3c(C)ccc(C(=O)N[C@@H]4C(=O)N[C@H](C(C)C)C(=O)N5[C@H](C(=O)N(C)CC(=O)N(C)[C@@H](C(C)C)C(=O)O[C@@H]4C)[C@@H](O)C[C@@H]5C)c3nc-2c(C(=O)N[C@@H]2C(=O)N[C@H](C(C)C)C(=O)N3CCC[C@H]3C(=O)N(C)CC(=O)N(C)[C@@H](C)C(=O)O[C@@H]2C)c(N)c1=O [ACTINOMYCIN G4]
- GI50 ([1]; Homo sapiens, HM02): 0.065 µM
- TGI ([1]; Homo sapiens, HM02): 0.52 µM
- GI50 [2]: 0.4 µM
- TGI [2]: 1.5 µM
- GI50 ([3]; Homo sapiens, HepG2): 0.64 µM
- TGI ([3]; Homo sapiens, HepG2): 1.4 µM

SMILES: Cc1c2oc3c(C)ccc(C(=O)N[C@@H]4C(=O)N[C@H](C(C)C)C(=O)N5[C@H](C(=O)N(C)CC(=O)N(C)[C@@H](C(C)C)C(=O)O[C@@H]4C)[C@@H](O)C[C@@H]5C)c3nc-2c(C(=O)N[C@@H]2C(=O)N[C@H](C(C)C)C(=O)N3CCC[C@H]3C(=O)N(C)CC(=O)N(C)[C@@H](C)C(=O)O[C@@H]2CO)c(N)c1=O [ACTINOMYCIN G3]
- zone of inhibition at 50 µg/disc (Escherichia coli): 0 mm
- GI50 ([1]; Homo sapiens, HM02): 0.13 µM
- TGI ([1]; Homo sapiens, HM02): 0.55 µM
- zone of inhibition at 50 µg/disc (Staphylococcus aureus): 21 mm
- GI50 [2]: 0.46 µM
- TGI [2]: 1.6 µM
- zone of inhibition at 50 µg/disc (Bacillus subtilis): 33 mm
- GI50 ([3]; Homo sapiens, HepG2): 1.1 µM
- TGI ([3]; Homo sapiens, HepG2): > 7.9 µM

SMILES: Cc1c2oc3c(C)ccc(C(=O)N[C@@H]4C(=O)N[C@H](C(C)C)C(=O)N5[C@H](C(=O)N(C)CC(=O)N(C)[C@@H](C(C)C)C(=O)O[C@@H]4C)[C@@H](O)C[C@@H]5C)c3nc-2c(C(=O)OC[C@H](O)[C@@H]2NC(=O)[C@H](C)N(C)C(=O)CN(C)C(=O)[C@@H]3CCCN3C(=O)[C@@H](C(C)C)NC2=O)c(N)c1=O [ACTINOMYCIN G6]
- zone of inhibition at 50 µg/disc (Escherichia coli): 0 mm
- TGI [1]: 2 µM
- TGI ([1]; Homo sapiens, HM02): 1 µM
- zone of inhibition at 50 µg/disc (Staphylococcus aureus): 0 mm
- GI50 [2]: 1.4 µM
- TGI [2]: 4.6 µM
- zone of inhibition at 50 µg/disc (Bacillus subtilis): 0 mm
- TGI [3]: 1.6 µM and > 7.9 µM

SMILES: Cc1c2oc3c(C)ccc(C(=O)N[C@@H]4C(=O)N[C@H](C(C)C)C(=O)N5[C@H](C(=O)N(C)CC(=O)N(C)[C@@H](C(C)C)C(=O)O[C@@H]4C)[C@@H](O)C[C@@H]5C)c3nc-2c2c(c1=O)OC[C@H]1OC(=O)[C@H](C)N(C)C(=O)CN(C)C(=O)[C@@H]3CCCN3C(=O)[C@@H](C(C)C)NC(=O)[C@H]1NC2=O [ACTINOMYCIN G5]
- zone of inhibition at 50 µg/disc (Escherichia coli): 0 mm
- GI50 ([1]; Homo sapiens, HM02): 2.1 µM
- TGI ([1]; Homo sapiens, HM02): 4.4 µM
- zone of inhibition at 50 µg/disc (Staphylococcus aureus): 10 mm
- GI50 [2]: 1.4 µM
- TGI [2]: 2.5 µM
- zone of inhibition at 50 µg/disc (Bacillus subtilis): 20 mm
- GI50 ([3]; Homo sapiens, HepG2): 2.7 µM
- TGI ([3]; Homo sapiens, HepG2): 7.8 µM

SMILES: Nc1cc2nc3ccccc3oc-2cc1=O
- GI50 ([1]; Homo sapiens, HM02): 4.45 µM
- TGI ([1]; Homo sapiens, HM02): 10 µM
- GI50 [2]: 0.61 µM
- TGI [2]: 2 µM
- GI50 ([3]; Homo sapiens, HepG2): 6.6 µM
- TGI ([3]; Homo sapiens, HepG2): 26 µM
